Source: patent publication US20240327471A1, “IL-10 INDUCING POLYPEPTIDES AND USES THEREOF” (ENTEROME S.A., priority 2021, published 2024)

System: TNBS-induced colitis
Test: Acute colitis induced by TNBS in rats (Wallace score, colon Lipocalin-2, mortality)
Assay type: in vivo, Sprague-Dawley rats
Conditions: intrarectal; for Wallace score: once a day, evaluated 4 days after TNBS
Excerpt: Next, anti-inflammatory properties of the NAT_29 polypeptide (SEQ ID NO: 1) have been evaluated in the 2,4,6-trinitrobenzene sulfonic acid (TNBS)-induced colitis model. The model of colitis induced by TNBS in rats is a validated animal model to evaluate the anti-inflammatory properties of drugs in intestinal bowel diseases (IBD). TNBS induces deep inflammation resulting in necrosis (with transmural destruction of the intestine wall) of the colon. This model is well-characterized, reliable, reproducible, and admitted by regulatory authorities in IBD (e.g., as described in Antoniou, E., et al. (2016). The TNBS-induced colitis animal model: An overview. Annals of medicine and surgery, vol. 11, 9-15, which is incorporated herein in its entirety).
To this end, the NAT_29 polypeptide (SEQ ID NO: 1) was administered by intrarectal instillation at two different concentrations (1 and 0.1 μM) in the model of acute colitis induced by TNBS (intrarectal administration at 80 mg/kg) in Sprague-Dawley rats. The anti-inflammatory effects were evaluated at the macroscopic level using validated score of Wallace and compared to those induced by the positive control (5-ASA) administered also by intrarectal instillation.
Resolution of inflammation was also evaluated using colon Lipocalin-2 (Lcn-2) quantification. Lipocalin-2, also known as neutrophil gelatinase-associated lipocalin (NGAL), is considered as a clinically relevant biomarker of IBD. […] In rodent models of colitis, a strong association has been shown between elevated levels of Lcn-2 and colitis severity.
Male Sprague-Dawley rats (Body weight: around 100-150 g) were allocated randomly and blindly 4 per cage and acclimated for one week. Rats were obtained from Janvier Laboratoires, Le Genest Saint-Isle, France.
The tested products were administered once a day by intrarectal instillation (500μl) in a prophylactic and therapeutic mode starting at day -5, i.e. 5 days before colitis induction (DO) and until euthanasia at D4, corresponding to 9 treatment days in total.
For colitis induction, Sprague Dawley rats were anesthetized for 2 hours using a subcutaneous injection of xylazine at 12.5 mg/kg/ketamin at 25 mg/kg. […] The TNBS solution at 80 mg/kg was prepared based on the mean body weight of rats, which is recorded before the TNBS solution preparation.
NAT_29 was solubilized in PBS and the active concentration for animal treatment was calculated assuming a maximum volume of colon-rectum content in rat of 3.5ml. […]
Animals were sacrificed 4 days (D4) after TNBS administration (DO) for evaluation of the intensity of colitis. Samples from distal colon were collected and used for macroscopic assessments and lipocalin quantification. […]

Sequence: KKGSRSCFFIYLDRGTKKGSRSCFFYLP (NAT_29) [28-amino-acid fragment of microbiota protein ID3166]
- Wallace score (final concentration of 0.1 μM): protective effect (albeit not significant)
- lipocalin-2 level in the colon (ELISA) (final concentration of 0.1 μM, 4 days after TNBS): slight decrease of lipocalin-2 level (albeit not significant)
- Wallace score (final concentration of 1 μM): statistically protective effect
- Lipocalin levels in the colon (ELISA) (final concentration of 1UM, 4 days after TNBS): significant decrease of Lipocalin levels
